Laboratory results published in patent publication US12661404B2, “Methods and materials for tissue ablation” (Mayo Foundation for Medical Education and Research, priority 2020, dated 2026).

Experiments:
subcutaneous fat tissue = details: 25% LATTE mixture subcutaneous
Protocol: Additional experiments were performed on explanted fat tissue obtained from the groin area from pig in a petri dish submersed in saline (FIG. 10).

[1] = tested on: pancreas ductal adenocarcinoma (Panc-1) cells; details: Panc-1, 24 hours incubation, WST-1
Protocol: (§1) To determine synergy and the concentration of a chemotherapy agent such as doxorubicin to co-administer with LATTE, cell culture experiments were performed.
(§2) HepG2 human liver cancer cell line (ATCC CRL10741; American Type Culture Collection, Manassas, VA, USA) were cultured in 75 cm^2 flasks using growth medium consisting of low glucose Dulbecco's Modified Eagle Medium (DMEM, ThermoFisher) and 10% heat-inactivated bovine serum that was supplemented with 100 IU penicillin and 10 μg/mL streptomycin (Thermo Fisher Scientific). […] The anticancer activity of LATTE on HepG2 was determined using WST-1 reagent (2-(4-Iodophenyl)-3-(4-nitrophenyl)-5-(2,4-disulfophenyl)-2H-tetrazolium sodium) assay as an indication of viability/cytotoxicity treatment. WST-1 viability assay is based on the reduction of tetrazolium salt, WST-1 to an […] formazan dye by electron transport across the plasma membrane in viable cells that alter the optical density of the media. […] At the end of the incubation period, the medium was discarded, and the wells were rinsed three times with DPBS solution followed by addition of 100 μL growth medium and 10 μL of freshly prepared WST-1 reagent into each well and then incubated for 2 hours inside the 5% CO2 incubator at 37° C. After the incubation period, the optical percent density was measured using a microplate reader at a wavelength of 450 nm (SpectraMax iD5, Molecular Devices, San Jose, CA). Cell viability was calculated relative to control wells that received the growth medium alone. Viability rate was calculated as follows: Viability (%)=[…].

[2] = tested on: Cholangiocarcinoma (SNU-478) cells; details: SNU-478, 24 hours incubation, WST-1
Protocol: as §1, §2

[3] = tested on: patient derived cholangiocarcinoma, pancreas adenocarcinoma cell lines and HepG2 hepatocellular carcinoma cells; details: three cell lines, serially diluted 25-0.048% w/v, 24 or 48 hours
Protocol: as §1, §2

cardiac muscle = details: 1 cc with ICG, 1 hour
Protocol: FIGS. 14A-14B. Effect of an ablation agent on pig heart tissue. FIG. 14A. In a living Yorkshire pig weighing 50-55 kg, a syringe connected to a 21 gauge 7 cm needle was guided through the skin into the myocardium using hand-held ultrasound guidance. […] FIG. 14B.
Pig heart tissue septum received 1 cc injection of LATTE mixture with ICG under ultrasound guidance. Cardiac muscle was removed after 1 hour for near-infrared imaging (NIRF) and histology was performed.

## choline-geranate [LATTE]
Subcutaneous fat tissue
  adipocyte ablation in treated zone (histology): complete ablation of the adipocytes
[1]
  effective dose (EC50), fractional cell viability: 0.3%
[2]
  effective dose (EC50), fractional cell viability: 0.2%
[3]
  effective concentration that causes 50% cell death (EC50): 0.18-0.3%
Pig liver; 2 mL of 25% LATTE mixed with ICG
  liver histology: total destruction of tissue architecture
Pig liver; transcutaneous injection in pigs
  ablation zone size: up to 4 cm
Cardiac muscle
  cardiac muscle histology at injected site: marked ablation of the cardiac myofibers
